Laboratory results: patent publication US6645972B2, “Methods of treating leukemia” (Shire BioChem Inc., priority 2001, dated 2003)
Where a name gives a salt, the structure may show the parent alone.

Key:
[1] = system: KBM7 cells; assay: response of KBM7 cells to STI-571 exposure; assay type: cell-based, human
Experimental: (§1) The cells were cultured in Iscove's modified Dulbecco's medium supplemented with 10% fetal calf serum (Invitrogen Corp., Carlsbad, Calif.) at 37° C. in atmosphere of 5% CO2 in air.

[2] = system: KBM5 cells; assay: response of KBM5 cells to STI-571 exposure; assay type: cell-based, human
Experimental: as §1

[3] = system: KBM5-STI^R cells (STI-571-resistant KBM5); assay: in vitro growth inhibition (MTS) assay, KBM5-STI^R; assay type: cell-based, human; conditions: 3 day MTS assay, 72 h exposure, read-out: IC50 (drug concentration which causes 50% growth inhibition)
[4] = system: chronic myeloid leukemia in blastic phase (CML-BP); assay: preliminary multicenter study in patients with CML-BP; assay type: in vivo, human; conditions: 8mg/m^2/day daily for 5 days, twenty one patients evaluable, 40 cycles, data not verified
Experimental: A preliminary study was conducted to investigate the activity of β-L Oddc in patients with chronic myeloid leukemia in blastic phase (CML-BP). The multicenter study was conducted using β-L Oddc 8mg/m^2/day daily for 5 days for patients with CML-BP who had received no prior chemotherapy for CML-BP. Patients who had received Gleevec therapy as sole prior therapy for CML-BP were also eligible. Twenty-six patients, 17 male, 26 performance score less than or equal to 2, median age 54 years (range 31-84) had been entered in the study to date. 13 (50%) patients received β-L Oddc as first therapy for CML-BP, 13 (50%) had failed prior Gleevec therapy for CML-BP. Response definitions are as follows: Complete hematologic response (CHR) requires normalization of peripheral counts and differentials with less than or equal to 5% marrow blasts for at least 4 weeks. Hematologic improvement (HI) is as with CHR but with persistence of thrombocytopenia less than 100×10^9/L and few immature peripheral cells. A partial hematologic response (PHR) is as per CHR, but allows persistence of, though less than or equal to 50% reduction of, palpable splenomegaly and thrombocytosis (platelets>450×10^9/L) or the presence of few immature peripheral cells. […]

[5] = system: KBM7-STI^R cells (STI-571-resistant KBM7); assay: in vitro growth inhibition (MTS) assay, KBM7-STI^R; assay type: cell-based, human; conditions: 3 day MTS assay, 72 h exposure, read-out: IC50 (drug concentration which causes 50% growth inhibition)
Experimental: (§2) β-L Oddc was evaluated using an in vitro growth inhibition (MTS) assay. The description of the cell lines used and the details of the MTS assay are described below.
(§3) Cell lines: Two human CML, Ph+, p210 Bcr-Abl expressing cell lines were used, namely, KBM-5 and KBM-7. KBM-5 was derived from a patient in the blastic phase of CML and was evaluated to be absent of normal c-ABL. KBM-7 was identified previously to be a human near-haploid cell line. These two cell lines were further described in the references below, now incorporated by reference:
(§4) Growth inhibition (MTS) assay: The in vitro growth inhibition effect of β-L Oddc on leukemic cells was determined by measuring MTS (CellTiter 96®Aqueous One Solution Reagent, Promega Corporation, WI) dye absorbance by living cells. Briefly, cells were seeded in triplicate in 96-well microtiter plates (Falcon, USA) at a concentration of 4×10^5 cells /ml. After exposure to the β-L Oddc for 72 h, 20 μl of MTS solution were added to each well, the plates were incubated for additional 4 h at 37° C., and absorbance at 490 nm was measured.

[6] = system: KBM-5 cells; assay: in vitro growth inhibition (MTS) assay, KBM-5; assay type: cell-based, human; conditions: 3 day MTS assay, 72 h exposure, read-out: IC50 (drug concentration which causes 50% growth inhibition)
Experimental: as §2, §3, §1, §4

[7] = system: KBM-7 cells; assay: in vitro growth inhibition (MTS) assay, KBM-7; assay type: cell-based, human; conditions: 3 day MTS assay, 72 h exposure, read-out: IC50 (drug concentration which causes 50% growth inhibition)
Experimental: as §2, §3, §1, §4

Structure (SMILES) | response to STI-571 exposure [1] | response to STI-571 exposure [2] | IC50 [3] | patients in whom some responses were observed [4] | IC50 [5] | IC50 [6] | IC50 [7]
Cc1ccc(NC(=O)c2ccc(CN3CCN(C)CC3)cc2)cc1Nc1nccc(-c2cccnc2)n1 [STI-571, imatinib mesylate] | apoptosis | G0/G1 cell cycle arrest | – | – | – | – | –
Nc1ccn([C@@H]2CO[C@H](CO)O2)c(=O)n1 [β-L Oddc, (−)-β-L-Dioxolane-Cytidine] | – | – | 0.5 to 1 µM | 4 patients | 0.5 to 1 µM | 0.5 to 1 µM | 0.5 to 1 µM
